Test results: US9518130B2, “Use of ERBB3 inhibitors in the treatment of triple negative and basal-like breast cancers” (Merrimack Pharmaceuticals, Inc., priority 2010, dated 2016)
Several values for one entry are separate records, joined by “and”; a condition that tells them apart may be missing. Equal entries are not always repeated.

Key:
[1] = test system: MDA-MB-231 triple negative breast cancer xenograft model; experiment: MM-121 combination with targeted and chemotherapies in vivo (Example 5); settings: MM121 300 ug/mouse Q3D, erlotinib 50 mg/kg PO, cetuximab 2 mg/kg Q3D, paclitaxel 10 mg/kg
Protocol: Balb/c nude mice (female, 4-5 weeks old from Charles River lab) are implanted orthotopically with 10×10^6 cells in mammary pad. Tumors are allowed to reach average of 150 mm^3 in size before randomization into 9 groups of 8 mice, containing mice with a similar size distribution of tumors. […] Treatment is continued for 4 weeks. Tumors are measured twice weekly and tumor volume is calculated as p/6×length×width, where the width is the shorter measurement.

[2] = test system: MDA-MB-231 triple negative breast cancer xenograft model; experiment: Inhibition of tumor growth in vivo by combination treatment with MM-121 and paclitaxel (Example 4); parameters: species or system Balb/c nude mice; settings: for mean tumor volumes: MM121 150 μg/mouse Q3D ip, paclitaxel 5 mg/kg; for effect on tumor growth (in words): sub-optimal doses, FIG. 3
From the text: Treatment is continued for 4 weeks. […] Results:

[3] = test system: MDA-MB-231 human triple negative breast cancer cells; experiment: MM-121 effects on MDA-MB-231 xenograft (subcutaneous flank or mammary fat pad); type: in vivo, Balb/c nude mice; settings: MM-121 600 ug per mouse IP every 3 days; FIG. 2
Protocol: Balb/c nude mice are injected under general anesthesia with 10^7 MDA-MB-231 human triple negative breast cancer cells (ATCC) either subcutaneously in the flank or into the mammary fat pad. Mice with established tumors (i.e., after 7-10 days of tumor growth following injection of cells) are then treated IP with either PBS or MM-121 every 3 days with 600 ug MM-121 per mouse as described in Example 1. Tumor volume is measured twice a week as described in Example 1.

[4] = test system: triple negative human mammary carcinoma xenograft MAXF449; experiment: Anti-tumor efficacy of MM-121 monotherapy in MAXF449 xenograft; type: in vivo, NMRI nude mice; settings: MM-121 600 μg per mouse IP every three days
Protocol: An analysis of the anti-tumor efficacy and tolerability of MM-121 treatment of tumor-bearing mice is carried out using triple negative human mammary carcinoma xenograft MAXF449 (ONCOTEST GmbH, Frieburg, Germany) in NMRI nude mice. MAXF449 is a Human tumor explant (histologically described upon explant as solid invasive ductal, and poorly defined) established via subcutaneous injection in serial passages in nude mice. The MAXF449 cells used in these experiments have been passaged 22 times. NMRI nude mice are obtained from Taconic farms, Charles River Laboratories International, or Harlan Laboratories. […]
To investigate anti-tumor efficacy in monotherapy, MM-121 or vehicle control (100 μL) is given to tumor-bearing mice at 600 μg per mouse (MM-121 as a 6 mg/mL solution in PBS) by IP injection every three days. […] Efficacy is determined by comparing tumor growth between the antibody-treated mice and the vehicle control mice and is expressed as the experimental to control ratio of median relative tumor volumes (T/C value). […]
Mice are randomized and therapy begins when a sufficient number of individual tumors have grown to a volume of approximately 200 mm3. Tumors are measured (L×W) by digital caliper measurement and the tumor volume is calculated using the formula Pi/6 (W2×L). […]

[5] = 1st time point column (day head not given; FIG. 3 starts at 28 days following injection)
[6] = 2nd time point column (day head not given)
[7] = 3rd time point column (day head not given)
[8] = 4th time point column (day head not given)
[9] = 5th time point column (day head not given)
[10] = 6th time point column (day head not given)

Molecule	mean tumor volumes ([1]; Day 28) [mm^3]	mean tumor volumes ([1]; Day 32) [mm^3]	mean tumor volumes ([1]; Day 36) [mm^3]	mean tumor volumes ([1]; Day 39) [mm^3]	mean tumor volumes ([1]; Day 43) [mm^3]	mean tumor volumes ([1]; Day 46) [mm^3]	mean tumor volumes ([1]; Day 49) [mm^3]	mean tumor volumes ([1]; Day 53) [mm^3]	mean tumor volumes [2, 5] [mm^3]	mean tumor volumes [2, 6] [mm^3]	mean tumor volumes [2, 7] [mm^3]	mean tumor volumes [2, 8] [mm^3]	mean tumor volumes [2, 9] [mm^3]	mean tumor volumes [2, 10] [mm^3]	effect on tumor growth (in words) [2]	effect on tumor growth (in words) [3]	effect on tumor growth (in words) ([4]; FIG. 1)	TGI (tumor growth inhibition) ([4]; MAXF449 xenograft, NMRI nude mice)
C#Cc1cccc(Nc2ncnc3cc(OCCOC)c(OCCOC)cc23)c1 [erlotinib]	172.1	182.1	216.1	273.2	252.8	245.6	303.1	327.4	–	–	–	–	–	–	–	–	–	–
CC(=O)O[C@H]1C(=O)[C@@]2(C)[C@H]([C@H](OC(=O)c3ccccc3)[C@]3(O)C[C@H](OC(=O)[C@H](O)[C@@H](NC(=O)c4ccccc4)c4ccccc4)C(C)=C1C3(C)C)[C@]1(OC(C)=O)CO[C@@H]1C[C@@H]2O [paclitaxel]	155.2	167.0	182.4	216.6	228.1	247.0	292.6	383.5	97.9	113.5	144.6	166.2	178.8	202.2	inhibited tumor growth	–	–	–
MM-121: anti-ErbB3 monoclonal antibody comprising VH and VL sequences as shown in SEQ ID NOs: 1 and 2 (antibody, listed as Homo sapiens, V domains shown) VH: EVQLLESGGGLVQPGGSLRLSCAASGFTFSHYVMAWVRQAPGKGLEWVSSISSSGGWTLYADSVKGRFTISRDNSKNTLYLQMNSLRAEDTAVYYCTRGLKMATIFDYWGQGTLVTVSS VL: QSALTQPASVSGSPGQSITISCTGTSSDVGSYNVVSWYQQHPGKAPKLIIYEVSQRPSGVSNRFSGSKSGNTASLTISGLQTEDEADYYCCSYAGSSIFVIFGGGTKVTVL	178.6	197.3	219.1	257.8	269.4	291.4	351.3	425.0	99.4	115.5	137.5	180.4	187.2	242.7	inhibited tumor growth	stopped human triple negative breast cancer tumor growth essentially completely	inhibited or stopped tumor growth, and in some cases reduced tumor size	approximately 200% and 200%
